Read-outs that look alike come from different tables or passages of the source.
What was measured:
[1] = Human pharmacokinetic study, single ascending oral doses; assay type: in vivo; conditions: for AUC(0-inf) / AUC(0-t) / Cmax / Tmax / half-life: male, human, plasma, oral
Experimental: Twenty-four healthy, young male subjects were assigned to 1 of 3 sequential treatment panels (A, B, and C). For each panel of 8 subjects, 2 subjects received placebo and 6 subjects were administered single ascending oral doses of crystalline Form II of Compound (I) with a minimum 7-day washout between each dose: Panel A (0.1, 0.2, 0.5, 1, and 2 mg); Panel B (2, 4, 8, and 15 mg, and 4 mg with food); and Panel C (15 and 20 mg). Blood samples were collected pre-dose and 0.5, 1, 1.5, 2, 3, 4, 6, 9, 12, 18, 24, 30, 48, and 72 h post dose. Plasma samples were analyzed for Form II concentrations using reversed phase high performance liquid chromatography with tandem mass spectrometric detection (Merck Research Laboratories). The analytical range was 0.5 to 500 nM (0.180 to 180 ng/mL).

[2] = molecular target: GluN1a/GluN2B human receptors (Homo sapiens, UniProt Q05586+Q13224); assay: Calcium influx (FLIPR) in GluN1a/GluN2B L(tk−) cells
Sequence of GluN1a/GluN2B human receptors (Q13224 27-1484, other chains not shown): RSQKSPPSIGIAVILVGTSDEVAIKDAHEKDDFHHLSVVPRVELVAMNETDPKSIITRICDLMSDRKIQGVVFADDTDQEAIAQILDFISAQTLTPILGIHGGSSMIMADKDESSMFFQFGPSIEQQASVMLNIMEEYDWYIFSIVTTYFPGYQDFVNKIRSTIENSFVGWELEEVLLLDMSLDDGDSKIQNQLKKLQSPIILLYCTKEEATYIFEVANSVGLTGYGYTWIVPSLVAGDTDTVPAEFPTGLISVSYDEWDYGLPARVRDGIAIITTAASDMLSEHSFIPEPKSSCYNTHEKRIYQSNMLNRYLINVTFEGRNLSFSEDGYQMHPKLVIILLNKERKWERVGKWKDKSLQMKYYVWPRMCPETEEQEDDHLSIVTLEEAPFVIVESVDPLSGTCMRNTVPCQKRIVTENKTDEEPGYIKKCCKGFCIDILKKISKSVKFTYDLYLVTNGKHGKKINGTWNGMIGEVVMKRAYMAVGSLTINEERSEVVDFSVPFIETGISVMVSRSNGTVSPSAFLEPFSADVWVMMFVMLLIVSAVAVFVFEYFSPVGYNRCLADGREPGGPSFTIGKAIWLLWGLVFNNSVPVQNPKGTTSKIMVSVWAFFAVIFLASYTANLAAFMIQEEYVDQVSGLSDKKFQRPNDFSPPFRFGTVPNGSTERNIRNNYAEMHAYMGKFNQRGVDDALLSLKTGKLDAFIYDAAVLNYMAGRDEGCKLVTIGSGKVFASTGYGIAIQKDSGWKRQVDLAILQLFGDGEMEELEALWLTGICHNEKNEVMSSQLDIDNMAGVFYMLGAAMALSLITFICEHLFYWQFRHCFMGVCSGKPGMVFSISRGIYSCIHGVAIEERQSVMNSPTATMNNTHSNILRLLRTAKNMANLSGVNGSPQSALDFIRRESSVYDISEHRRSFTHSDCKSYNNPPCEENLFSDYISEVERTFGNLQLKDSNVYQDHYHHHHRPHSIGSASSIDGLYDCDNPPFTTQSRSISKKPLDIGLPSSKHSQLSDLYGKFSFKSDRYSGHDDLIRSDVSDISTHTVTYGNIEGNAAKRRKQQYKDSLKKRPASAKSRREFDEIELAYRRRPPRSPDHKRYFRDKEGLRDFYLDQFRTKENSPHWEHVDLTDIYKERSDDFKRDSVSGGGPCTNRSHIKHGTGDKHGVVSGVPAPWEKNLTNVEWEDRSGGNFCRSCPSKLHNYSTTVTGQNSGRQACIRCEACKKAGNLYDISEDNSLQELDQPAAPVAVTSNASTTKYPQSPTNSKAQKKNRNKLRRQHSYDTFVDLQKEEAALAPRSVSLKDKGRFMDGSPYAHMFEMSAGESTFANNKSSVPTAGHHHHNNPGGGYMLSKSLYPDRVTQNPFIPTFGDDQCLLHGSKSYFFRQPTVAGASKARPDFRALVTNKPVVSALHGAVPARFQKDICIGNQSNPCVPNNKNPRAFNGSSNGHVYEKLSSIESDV

in vivo = conditions: both, Sprague-Dawley, rat, po
Sprague-Dawley rats = assay: Locomotor assay; assay type: in vivo, rat
Experimental: To confirm that the effect of Form II in the forced swim test was not due to a general increase in activity levels, rats were subjected to a locomotor assay following oral Form II administration. Adult male Sprague-Dawley rats (N=42) were randomly assigned across the treatment groups (vehicle or Compound (I) at 0.1, 0.3, 1, 3, 10, and 30 mg/kg; N=6/group). Locomotor activity was assessed during the light cycle in photocell-monitored cages (Hamilton Kinder, San Diego, CA). Each cage consisted of a standard plastic rat cage (24×45.5 cm) surrounded by a stainless steel frame. Infrared photocell beams were located across the long axis of the frame to measure the ambulatory distance traveled. A second set of beams was placed above the floor and was used to measure rearing activity. Photocell beam interruptions were recorded by a computer system. Filter tops were placed on top of the test enclosures during testing. Rats were administered either vehicle or test compound via oral gavage twice on Day 1 (approximately 24 h before the test and prior to dark cycle) and once on Day 2 (45 min prior to placing in the locomotor cages for a 60-min test). Locomotor activity was captured in 5-min bins.

[3] = Cardiovascular safety in conscious chair-restrained monkeys, single oral doses; assay type: in vivo, monkey; conditions: monkey, plasma
Experimental: (§1) The potential effects of Form II of Compound (I) on the functions of the nervous system, cardiovascular system, and respiratory system were evaluated in a battery of safety pharmacology studies that included an in vitro human ether-a-go-go-related gene (hERG) assay and in vivo studies in rats, dogs, and monkeys. CNS effects were tested in rats at single doses at 15, 75, and 225 mg/kg.
(§2) Effects of Form II on the cardiovascular system were tested in several studies. Potential QTc effects were tested in vitro and in vivo.
(§3) Hemodynamic effects were tested in dogs and monkeys. […] However, Form II did produce dose-independent increases in systolic (12-15 mm Hg), diastolic (7-10 mm Hg), and mean arterial pressures (9-12 mm Hg) in conscious, chair-restrained monkeys given single oral doses at 15, 75, or 150 mg/kg and monitored for 6 h post-dose.

monkeys = assay: as above; assay type: in vivo, monkey
Experimental: as §1, §2, §3

[4] = Single-dose pharmacokinetics in rats (oral and IV); assay type: in vivo; conditions: male, Sprague-Dawley, rat, plasma
Experimental: Male Sprague-Dawley rats (N=8; N=4 oral and N=4 intravenous [IV]) weighing approximately 250-280 g and male rhesus monkeys (N=4, crossover) weighing 6.0-8.8 kg were used for the PK studies. In rats, the IV dose of crystalline Form II of Compound (I) at 2 mg/kg (0.4 mL/kg) was administered as a bolus and the oral dose was administered by gavage at 15 mg/kg (5 mL/kg). In monkeys, the IV dose of Form II at 2 mg/kg (0.1 mL/kg) was administered as a slow bolus and the oral dose was administered via nasogastric tube at 15 mg/kg (5 mL/kg). Blood samples were serially collected pre-dose, and at 0.083 (IV only), 0.25, 0.50, 1, 2, 4, 6, 8, 10, 24, 48, 72, and 96 h post-dose. The concentrations of Form II in rat and monkey plasma were determined by LC/MS/MS analysis in the positive ion mode using a heated nebulizer interface. The lower limit of quantitation was 2.5 ng/mL (approximately 0.00697 μM).

hERG current = hERG current (Homo sapiens, UniProt Q12809); assay: In vitro hERG assay; assay type: cell-based
Sequence of hERG current (Q12809 whole entry): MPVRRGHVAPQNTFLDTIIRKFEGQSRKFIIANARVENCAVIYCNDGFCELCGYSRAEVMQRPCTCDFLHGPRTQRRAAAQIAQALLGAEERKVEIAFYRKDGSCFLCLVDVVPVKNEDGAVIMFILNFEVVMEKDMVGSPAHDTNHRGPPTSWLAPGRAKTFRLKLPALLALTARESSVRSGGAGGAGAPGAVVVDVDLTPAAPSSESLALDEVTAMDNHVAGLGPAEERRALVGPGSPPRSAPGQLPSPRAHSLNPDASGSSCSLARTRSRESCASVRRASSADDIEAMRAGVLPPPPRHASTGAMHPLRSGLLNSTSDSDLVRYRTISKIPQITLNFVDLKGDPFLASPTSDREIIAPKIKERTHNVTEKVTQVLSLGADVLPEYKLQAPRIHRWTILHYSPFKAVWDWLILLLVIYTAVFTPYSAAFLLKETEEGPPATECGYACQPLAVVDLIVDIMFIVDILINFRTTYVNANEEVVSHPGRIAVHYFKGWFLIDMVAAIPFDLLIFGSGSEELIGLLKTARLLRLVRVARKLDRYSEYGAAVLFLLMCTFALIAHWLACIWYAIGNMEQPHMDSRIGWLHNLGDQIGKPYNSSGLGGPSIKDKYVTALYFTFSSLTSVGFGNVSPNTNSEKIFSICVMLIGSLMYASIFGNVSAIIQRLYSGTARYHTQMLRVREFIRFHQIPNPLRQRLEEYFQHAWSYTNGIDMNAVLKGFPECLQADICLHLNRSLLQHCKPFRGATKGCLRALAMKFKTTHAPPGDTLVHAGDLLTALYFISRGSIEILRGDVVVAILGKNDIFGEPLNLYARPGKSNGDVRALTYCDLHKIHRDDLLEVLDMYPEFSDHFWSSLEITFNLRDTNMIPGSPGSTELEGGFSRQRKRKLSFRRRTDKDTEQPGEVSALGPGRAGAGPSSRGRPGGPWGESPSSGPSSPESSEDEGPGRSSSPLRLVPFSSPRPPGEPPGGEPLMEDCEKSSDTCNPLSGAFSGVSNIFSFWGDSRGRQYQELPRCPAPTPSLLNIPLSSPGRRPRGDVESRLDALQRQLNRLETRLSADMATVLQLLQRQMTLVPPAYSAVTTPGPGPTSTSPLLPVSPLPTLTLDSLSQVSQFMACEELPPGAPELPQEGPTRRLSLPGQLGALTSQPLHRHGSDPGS
Experimental: as §1, §2

[5] = 15, 75, or 150 mg/kg oral, dose-independent

## Cc1ccc(COC(=O)N2CC[C@H](CNc3ncccn3)[C@H](F)C2)cc1 [Form II, 4-methylbenzyl (3S, 4R)-3-fluoro-4-[(pyrimidin-2-ylamino)methyl] piperidine-1-carboxylate]
[1]; 4 mg
  decrease in Cmax, fed vs fasted: ~56%
  delay in Tmax, fed vs fasted: ~1 h
  overall extent of absorption (AUC), fed vs fasted: not affected
[1]; 2 mg, fasted, mean
  AUC(0-inf): 493 ng·h/mL
  AUC(0-t): 398 ng·h/mL
  Cmax: 51.5 ng/mL
[1]; 2 mg, fasted, mean, read-out: Tmax
  Tmax: 1.08 h
[1]; 2 mg, fasted, mean, read-out: t1/2 (converted)
  half-life: 16.1 h
[1]; 4 mg, 4 mg (fed), mean
  AUC(0-inf): 1140 ng·h/mL
  AUC(0-t): 1080 ng·h/mL
  Cmax: 80 ng/mL
[1]; 4 mg, 4 mg (fed), mean, read-out: Tmax
  Tmax: 2 h
[1]; 4 mg, 4 mg (fed), mean, read-out: t1/2 (converted)
  half-life: 17.3 h
[1]; 4 mg, fasted, mean
  AUC(0-inf): 1110 ng·h/mL
  AUC(0-t): 1060 ng·h/mL
  Cmax: 141 ng/mL
[1]; 4 mg, fasted, mean, read-out: Tmax
  Tmax: 0.67 h
[1]; 4 mg, fasted, mean, read-out: t1/2 (converted)
  half-life: 16.9 h
[1]; 8 mg, fasted, mean
  AUC(0-inf): 2260 ng·h/mL
  AUC(0-t): 2150 ng·h/mL
  Cmax: 212 ng/mL
[1]; 8 mg, fasted, mean, read-out: Tmax
  Tmax: 0.92 h
[1]; 8 mg, fasted, mean, read-out: t1/2 (converted)
  half-life: 17 h
[1]; 15 mg, fasted, mean
  AUC(0-inf): 4400 ng·h/mL
  AUC(0-t): 3520 ng·h/mL
  Cmax: 385 ng/mL
[1]; 15 mg, fasted, mean, read-out: Tmax
  Tmax: 1.04 h
[1]; 15 mg, fasted, mean, read-out: t1/2 (converted)
  half-life: 16.8 h
[1]; 20 mg, fasted, mean
  AUC(0-inf): 5910 ng·h/mL
  AUC(0-t): 5590 ng·h/mL
  Cmax: 590 ng/mL
[1]; 20 mg, fasted, mean, read-out: Tmax
  Tmax: 1 h
[1]; 20 mg, fasted, mean, read-out: t1/2 (converted)
  half-life: 15.9 h
[1]; across all fasted dose levels, read-out: mean Tmax
  Tmax: ≤ 1 h
[1]; over the 4- to 20-mg dose range, read-out: terminal elimination half-life
  half-life: 12 to 17 h
[1]; over the dose range studied
  Cmax and AUC vs dose: dose-proportional
[2]
  IC50: 0.0036 µM
In vivo; 10 mg/kg
  Cmax: ~4 µM
In vivo; 30 mg/kg
  Cmax: ~14 µM
In vivo; 100 mg/kg
  Cmax: ~26 µM
Sprague-Dawley rats; 0.1 and 0.3 mg/kg dose groups
  locomotor effects: No locomotor effects
Sprague-Dawley rats; Rattus norvegicus, read-out: ED50 for increase in locomotor activity
  ED50: ~2 mg/kg
Sprague-Dawley rats; first 5 min of testing, 1, 3, 10, and 30 mg/kg vs vehicle
  distance traveled: significantly increased
Sprague-Dawley rats; rat, in vivo
  RO corresponding to locomotor ED50: ~75%
Sprague-Dawley rats; summed over 60-min test, 1, 3, 10, and 30 mg/kg vs vehicle
  total distance traveled: significantly increased
[3]; 15 mg/kg oral
  Cmax: ~3 µM
[3]; 75 mg/kg oral
  Cmax: ~9 µM
[3]; 150 mg/kg oral
  Cmax: ~15 µM
monkeys; 15, 75, and 150 mg/kg oral, monitored 6 h
  heart rhythm and ECG parameters: did not affect
monkeys; [5]
  increase in diastolic pressure: 7-10 mm Hg
  increase in mean arterial pressure: 9-12 mm Hg
  increase in systolic pressure: 12-15 mm Hg
[4]; 15 mg/kg, dose-normalized AUC0-∞ after IV and PO, non-crossover
  bioavailability: 60%
[4]; IV 2 mg/kg, mean (S.D.)
  AUC(0-inf): 3.31 µM·h
  half-life: 1.7 h
[4]; IV 2 mg/kg, mean (S.D.), read-out: CLp
  clearance: 28.4 mL/min/kg
[4]; IV 2 mg/kg, mean (S.D.), read-out: Vdss
  Vd: 3.1 L/kg
[4]; PO 15 mg/kg, mean (S.D.)
  AUC(0-inf): 14.9 µM·h
  Cmax: 5.9 µM
hERG current
  IC50: ~13 µM

Source: patent US12410153B2, “Compounds, compositions and methods” (Avalo Therapeutics, Inc., priority 2014, dated 2025)
